# Source: patent US20190055576A1, “USE OF HERBICIDE-TOLERANT PROTEIN” (BEIJING DABEINONG TECHNOLOGY GROUP CO., LTD., priority 2016, published 2019)
# Experiments:
# [1] = test system: wild-type Arabidopsis thaliana plants; assay: Herbicide tolerance of wild-type Arabidopsis thaliana plants, resistance classes counted after spraying; format: in vivo
# Text: (§1) T1 transformants were initially selected from the background of untransformed seeds using a glufosinate selection scheme. About 40000 T1 seeds were screened, and 380 T1 positive transformants (PAT gene) were identified with a transformation efficiency of about 0.95%. The plants that were transformed with the recombinant expression vector DBN100632 were Arabidopsis thaliana plants having an ALT-1-01 nucleotide sequence located in the cytoplasm introduced (At cytoplasmic ALT-1-01), and the plants that were transformed with the recombinant expression vector DBN100631 were Arabidopsis thaliana plants having an ALT-1-01 nucleotide sequence located in the chloroplast introduced (At chloroplastic ALT-1-01); the plants that were transformed with the recombinant expression vector DBN100634 were Arabidopsis thaliana plants having an ALT-2-01 nucleotide sequence located in the cytoplasm introduced (At cytoplasmic ALT-2-01), and the plants that were transformed with the recombinant expression vector DBN100633 were Arabidopsis thaliana plants having an ALT-2-01 nucleotide sequence located in the chloroplast introduced (At chloroplastic ALT-2-01); and the plants that were transformed with the recombinant expression vector DBN100636 were Arabidopsis thaliana plants having an ALT-3-01 nucleotide sequence located in the cytoplasm introduced (At cytoplasmic ALT-3-01), and the plants that were transformed with the recombinant expression vector DBN100635 were Arabidopsis thaliana plants having an ALT-3-01 nucleotide sequence located in the chloroplast introduced (At chloroplastic ALT-3-01). The herbicide tolerance effects of At cytoplasmic ALT-1-01 T1 plants, At chloroplastic ALT-1-01 T1 plants, At cytoplasmic ALT-2-01 T1 plants, At chloroplastic ALT-2-01 T1 plants, At cytoplasmic ALT-3-01 T1 plants, At chloroplastic ALT-3-01 T1 plants and wild-type Arabidopsis thaliana plants on Sulfometuron-methyl were detected (14 days after sowing), respectively.
# (§2) At cytoplasmic ALT-1-01 T1 plants, At chloroplastic ALT-1-01 T1 plants, At cytoplasmic ALT-2-01 T1 plants, At chloroplastic ALT-2-01 T1 plants, At cytoplasmic ALT-3-01 T1 plants, At chloroplastic ALT-3-01 T1 plants and wild-type Arabidopsis thaliana plants were sprayed with Sulfometuron-methyl (30 g ai/ha, 1-fold field concentration) and a blank solvent (water), respectively. Plants were counted for the resistance situations 14 days after spraying: those having a consistent growth status with the blank solvent (water) group after 14 days were classified as highly resistant plants, those having a bolting height less than ½ of that of the blank solvent (water) group after 14 days were classified as moderately resistant plants, those still not capable of bolting after 14 days were classified as poorly resistant plants, and those dead after 14 days were classified as non-resistant plants. Since each Arabidopsis thaliana T1 plant was an independent transformation event, a significant difference in individual T1 responses could be expected at a given dose.
# (§3) At cytoplasmic ALT-1-01 T1 plants, At chloroplastic ALT-1-01 T1 plants, At cytoplasmic ALT-2-01 T1 plants, At chloroplastic ALT-2-01 T1 plants, At cytoplasmic ALT-3-01 T1 plants, At chloroplastic ALT-3-01 T1 plants and wild-type Arabidopsis thaliana plants in Example 4 were sprayed with iodosulfuron-methyl (10 g ai/ha, 1-fold field concentration), mesosulfuron (14 g ai/ha, 1-fold field concentration) and oxasulfuron (60 g ai/ha, 1-fold field concentration), respectively, in addition to Sulfometuron-methyl (30 g ai/ha, 1-fold field concentration) and the blank solvent (water). […]
# [2] = test system: transgenic Arabidopsis thaliana T1 plants (ALT-1-01, ALT-2-01, ALT-3-01; cytoplasmic or chloroplastic); assay: Herbicide tolerance of transgenic Arabidopsis thaliana T1 plants expressing thifensulfuron hydrolase, resistance classes counted after spraying; format: in vivo; details: for Highly resistant (number of plants with growth status consistent with blank solvent group) / Moderately resistant (number of plants with bolting height less than 1/2 of blank solvent group) / Non-resistant (number of plants dead) / Poorly resistant (number of plants still not capable of bolting): 1-fold field concentration (g ai/ha: Sulfometuron-methyl 30, iodosulfuron-methyl 10, mesosulfuron 14, oxasulfuron 60), 14 days after spraying
# Text: as §1, §2, §3
# [3] = 1-fold field concentration (g ai/ha: Sulfometuron-methyl 30, iodosulfuron-methyl 10, mesosulfuron 14, oxasulfuron 60), 14 days after spraying
# [4] = At chloroplastic ALT-1-01 T1 plants
# [5] = At chloroplastic ALT-2-01 T1 plants
# [6] = At chloroplastic ALT-3-01 T1 plants
# [7] = At cytoplasmic ALT-1-01 T1 plants
# [8] = At cytoplasmic ALT-2-01 T1 plants
# [9] = At cytoplasmic ALT-3-01 T1 plants
structure (smiles),measurement,setting,value
"COC(=O)c1ccccc1S(=O)(=O)NC(=O)Nc1nc(C)cc(C)n1 [Sulfometuron-methyl, 2-(4,6-dimethylpyrimidine-2-amino-formamido-sulfonyl) methyl benzoate]",Highly resistant (number of plants with growth status consistent with blank solvent group),[1]; [3],0
same,Moderately resistant (number of plants with bolting height less than 1/2 of blank solvent group),[1]; [3],0
same,Non-resistant (number of plants dead),[1]; [3],32
same,Poorly resistant (number of plants still not capable of bolting),[1]; [3],0
same,herbicide tolerance of wild-type plants,[1]; 30 g ai/ha,none of the wild-type Arabidopsis thaliana plants was tolerant
same,Highly resistant (number of plants with growth status consistent with blank solvent group),[2]; [4],27
same,Moderately resistant (number of plants with bolting height less than 1/2 of blank solvent group),[2]; [4],0
same,Non-resistant (number of plants dead),[2]; [4],1
same,Poorly resistant (number of plants still not capable of bolting),[2]; [4],0
same,Highly resistant (number of plants with growth status consistent with blank solvent group),[2]; [5],29
same,Moderately resistant (number of plants with bolting height less than 1/2 of blank solvent group),[2]; [5],0
same,Non-resistant (number of plants dead),[2]; [5],0
same,Poorly resistant (number of plants still not capable of bolting),[2]; [5],1
same,Highly resistant (number of plants with growth status consistent with blank solvent group),[2]; [6],27
same,Moderately resistant (number of plants with bolting height less than 1/2 of blank solvent group),[2]; [6],0
same,Non-resistant (number of plants dead),[2]; [6],1
same,Poorly resistant (number of plants still not capable of bolting),[2]; [6],0
same,Highly resistant (number of plants with growth status consistent with blank solvent group),[2]; [7],23
same,Moderately resistant (number of plants with bolting height less than 1/2 of blank solvent group),[2]; [7],2
same,Non-resistant (number of plants dead),[2]; [7],1
same,Poorly resistant (number of plants still not capable of bolting),[2]; [7],1
same,Highly resistant (number of plants with growth status consistent with blank solvent group),[2]; [8],24
same,Moderately resistant (number of plants with bolting height less than 1/2 of blank solvent group),[2]; [8],0
same,Non-resistant (number of plants dead),[2]; [8],3
same,Poorly resistant (number of plants still not capable of bolting),[2]; [8],2
same,Highly resistant (number of plants with growth status consistent with blank solvent group),[2]; [9],22
same,Moderately resistant (number of plants with bolting height less than 1/2 of blank solvent group),[2]; [9],1
same,Non-resistant (number of plants dead),[2]; [9],3
same,Poorly resistant (number of plants still not capable of bolting),[2]; [9],1
same,"herbicide tolerance conferred by the thifensulfuron hydrolase (ALT-1, ALT-2 and ALT-3)","[2]; transgenic Arabidopsis thaliana T1 plants, 30 g ai/ha",conferred Sulfometuron-methyl herbicide tolerance to individual Arabidopsis thaliana plants
